This is an account of results in ChEMBL document CHEMBL1201862, “PubChem BioAssay data set” (2004).

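Where inhibition never reached the appropriate level, the endpoint shown equals the highest concentration tested. Otherwise, values were interpolated linearly from a five-concentration, 48-hour dose response in 96-well plates. GI50 marks 50% less growth.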 Active and inactive are the calls of the source. Rule as the data show it: active = GI50 up to about 1.1 µM and inactive = higher. Bounds are passed on as bounds.

Among the test systems are Malme-3M; SK-MEL-5; SF-295; RXF 393; SF-268; HCT-15; MOLT-4; NCI/ADR-RES; M14; MDA-N; CCRF-CEM; SK-MEL-2; COLO 205; SW-620; MDA-MB-231; KM12; IGROV-1; HT-29; HL-60; CAKI-1.
Experiment in all cases: growth of human tumour cells (NCI), 48 h

With `COc1cc2nc3n(c(=O)c2cc1OC)CCCCC3`, the GI50 in the test with Malme-3M was > 100 µM (inactive); in the test on SK-MEL-5 it was > 100 µM (inactive); in the test on SF-295 it was > 100 µM (inactive); in the test on RXF 393 it was > 100 µM (inactive); in the test with SF-268 it was > 100 µM (inactive); with HCT-15 it was > 100 µM. Further, the GI50 was > 100 µM (inactive) in the test on MOLT-4; > 100 µM (inactive) with NCI/ADR-RES; > 100 µM (inactive) with M14; > 100 µM (inactive) in the test with MDA-N; 94.2 µM (inactive) with CCRF-CEM; > 100 µM (inactive) with SK-MEL-2. Also, the GI50 in the test with COLO 205, in the test with SW-620, in the test with MDA-MB-231, with KM12, in the test on IGROV-1 and with HT-29 was > 100 µM (inactive) each time. Moreover, the GI50 with HL-60 and in the test on CAKI-1 was > 100 µM (inactive) throughout.

As for `CCOC(=O)c1ccc(/N=C2\Sc3nc4ccccc4n3\C2=N\c2ccc(C(=O)OCC)cc2)cc1`, the GI50 in the test on Malme-3M was 22.7 µM (inactive); in the test on SK-MEL-5, 25.9 µM (inactive); in the test on SF-295, 16.2 µM (inactive); in the test with RXF 393, 28.8 µM (inactive); in the test on SF-268, 22.3 µM (inactive); in the test on HCT-15 it was 51.4 µM. Besides, the GI50 was 9.77 µM (inactive) in the test on MOLT-4; 22.1 µM (inactive) with NCI/ADR-RES; 16 µM (inactive) in the test on M14; 18.5 µM (inactive) in the test with MDA-N; > 100 µM (inactive) in the test with CCRF-CEM; 39.3 µM (inactive) in the test with SK-MEL-2. Moreover, the GI50 in the test on COLO 205 is 38.5 µM (inactive); in the test with SW-620 it was 21.5 µM (inactive); in the test on MDA-MB-231 it was 22.5 µM (inactive); with KM12 it was 20.1 µM (inactive); in the test with IGROV-1, 19.5 µM (inactive); in the test with HT-29, 19.6 µM (inactive). The GI50 in the test on HL-60 was > 100 µM (inactive); in the test with CAKI-1 it was 23 µM (inactive).

Consider `C=C1C(=O)C23CC1CCC2C12CO[C@@]3(O)[C@@H](O)C1C(C)(C)C=CC2=O` (stereo not given in full), for which the GI50 in the test with Malme-3M was 0.755 µM (active); with SK-MEL-5, 6.65 µM (inactive); in the test on SF-295, 1.48 µM (inactive); in the test with RXF 393, 0.728 µM (active); with SF-268 it was 1.65 µM (inactive); in the test with HCT-15, 0.838 µM. Also, the GI50 in the test with MOLT-4 is 0.281 µM (active); in the test with NCI/ADR-RES, 9.31 µM (inactive); with M14, 2.75 µM (inactive); with MDA-N, 2.98 µM (inactive); in the test with CCRF-CEM, 0.313 µM (active); in the test on SK-MEL-2 it was 0.925 µM (active). The GI50 in the test with COLO 205 was 0.714 µM (active); in the test with SW-620, 2.93 µM (inactive); with MDA-MB-231 it was 3.85 µM (inactive); in the test on KM12 it was 14.6 µM (inactive); with IGROV-1, 3.94 µM (inactive); with HT-29, 0.234 µM (active). Besides, the GI50 with HL-60 was 0.143 µM (active); with CAKI-1 it was 2.44 µM (inactive).

On to `O=[N+]([O-])c1ccc(S(=O)(=O)Cc2ccccc2)c([N+](=O)[O-])c1`, for which the GI50 is 2.91 µM (inactive) in the test on Malme-3M; 2.12 µM (inactive) in the test on SK-MEL-5; 16.6 µM (inactive) in the test on SF-295; 1.75 µM (inactive) in the test with RXF 393; 3.16 µM (inactive) with SF-268; 1.82 µM with HCT-15. The GI50 with MOLT-4 was 0.139 µM (active); in the test with NCI/ADR-RES, 3.21 µM (inactive); in the test with M14, 1.87 µM (inactive); in the test with MDA-N, 1.96 µM (inactive); in the test on CCRF-CEM it was 0.17 µM (active); in the test with SK-MEL-2 it was 2.82 µM (inactive). Besides, the GI50 is 1.79 µM (inactive) with COLO 205; 1.51 µM (inactive) in the test on SW-620; 2.11 µM (inactive) with MDA-MB-231; 7.38 µM (inactive) in the test on KM12; 2.6 µM (inactive) in the test on IGROV-1; 2.18 µM (inactive) in the test on HT-29. The GI50 in the test on HL-60 is 1.91 µM (inactive); in the test with CAKI-1, 1.72 µM (inactive).

With `Cc1cc(C)cc(C(=N)c2ccccc2Cc2cccc3ccccc23)c1`, the GI50 was 12.8 µM (inactive) in the test on Malme-3M; 16.6 µM (inactive) in the test with SK-MEL-5; 11 µM (inactive) with SF-295; 17.3 µM (inactive) in the test with RXF 393; 15.9 µM (inactive) with SF-268; 16.1 µM in the test on HCT-15. Also, the GI50 is 9.64 µM (inactive) in the test with MOLT-4; 20.2 µM (inactive) in the test on NCI/ADR-RES; 16.5 µM (inactive) in the test on M14; 21.1 µM (inactive) with MDA-N; 9.73 µM (inactive) with CCRF-CEM; 37.8 µM (inactive) in the test with SK-MEL-2. For the same compound, the GI50 in the test on COLO 205 was 21.3 µM (inactive); in the test on SW-620, 15.2 µM (inactive); in the test with MDA-MB-231 it was > 100 µM (inactive); in the test on KM12 it was 11.4 µM (inactive); in the test with IGROV-1, 17.4 µM (inactive); with HT-29, 9.66 µM (inactive). Moreover, the GI50 is 13.3 µM (inactive) with HL-60 and 19.5 µM (inactive) in the test on CAKI-1.

For `Oc1nc2nc3ccccc3nc2nc1O`, the GI50 is > 100 µM (inactive) with Malme-3M; > 100 µM (inactive) in the test on SK-MEL-5; > 100 µM (inactive) in the test with SF-295; > 100 µM (inactive) in the test on RXF 393; > 100 µM (inactive) in the test on SF-268; > 100 µM in the test with HCT-15. Also, the GI50 with MOLT-4, with NCI/ADR-RES, with M14, with MDA-N, with CCRF-CEM and with SK-MEL-2 was > 100 µM (inactive) throughout. In addition, the GI50 in the test with COLO 205, in the test with SW-620, in the test with MDA-MB-231, with KM12, in the test on IGROV-1 and with HT-29 was > 100 µM (inactive) in each case. Also, the GI50 in the test with HL-60 and with CAKI-1 was > 100 µM (inactive) throughout.

Regarding `O=c1[nH]c2ccccc2nc1CBr`, the GI50 with Malme-3M was 2.74 µM (inactive); in the test with SK-MEL-5 it was 10.8 µM (inactive); with SF-295 it was 12.6 µM (inactive); with RXF 393, 1.82 µM (inactive); with SF-268, 11.1 µM (inactive); in the test with HCT-15, 8.95 µM. The GI50 in the test on MOLT-4 is 1.87 µM (inactive); in the test on NCI/ADR-RES, 19.7 µM (inactive); in the test on M14, 10.6 µM (inactive); in the test with MDA-N, 12 µM (inactive); with CCRF-CEM, 0.399 µM (active); in the test on SK-MEL-2 it was 8.24 µM (inactive). Also, the GI50 is 5.78 µM (inactive) in the test on COLO 205; 4.19 µM (inactive) in the test with SW-620; 11.2 µM (inactive) in the test on MDA-MB-231; 2.56 µM (inactive) in the test with KM12; 4.22 µM (inactive) in the test on IGROV-1; 6.24 µM (inactive) with HT-29. Besides, the GI50 in the test with HL-60 is 0.213 µM (active); in the test with CAKI-1, 7.33 µM (inactive).

With `Cc1cc(-c2nc3ccccc3s2)ccc1N`, the GI50 was 64.3 µM (inactive) with Malme-3M; 21.9 µM (inactive) in the test on SK-MEL-5; 43 µM (inactive) in the test on SF-295; 50.8 µM (inactive) in the test with RXF 393; 52 µM (inactive) with SF-268; 42.3 µM in the test with HCT-15. Moreover, the GI50 with MOLT-4 was 13.5 µM (inactive); in the test with NCI/ADR-RES it was 57.4 µM (inactive); with M14 it was 36.8 µM (inactive); in the test on MDA-N, 60.7 µM (inactive); in the test on CCRF-CEM, 9.44 µM (inactive); with SK-MEL-2, 56.4 µM (inactive). The GI50 in the test with COLO 205 is 40.7 µM (inactive); with SW-620, > 72.4 µM (inactive); with MDA-MB-231, 38.6 µM (inactive); with KM12, 42.5 µM (inactive); in the test on IGROV-1, 0.0219 µM (active); in the test on HT-29 it was 40.3 µM (inactive). Also, the GI50 with HL-60 was 15.7 µM (inactive); with CAKI-1, 43.7 µM (inactive).

`Nc1nc(NCCCO)cc(=O)[nH]1`: the GI50 in the test with Malme-3M was > 100 µM (inactive); in the test with SK-MEL-5 it was > 100 µM (inactive); in the test with SF-295, > 100 µM (inactive); in the test with RXF 393, > 100 µM (inactive); in the test on SF-268, > 100 µM (inactive); with HCT-15 it was > 100 µM. In addition, the GI50 with MOLT-4, in the test with NCI/ADR-RES, in the test with M14, in the test with MDA-N, in the test on CCRF-CEM and in the test on SK-MEL-2 was > 100 µM (inactive) throughout. Besides, the GI50 in the test with COLO 205, with SW-620, in the test on MDA-MB-231, in the test on KM12, in the test with IGROV-1 and with HT-29 was > 100 µM (inactive) in each case. The GI50 in the test with HL-60 and in the test on CAKI-1 was > 100 µM (inactive) throughout.

On to `COC(=O)Nc1nc2ccccc2[nH]1` [CARBENDAZIM], for which the GI50 in the test on Malme-3M was > 43.9 µM (inactive); in the test on SK-MEL-5 it was 6.03 µM (inactive); in the test on SF-295 it was 4.72 µM (inactive); in the test on RXF 393 it was 17.5 µM (inactive); in the test with SF-268, > 51.3 µM (inactive); in the test on HCT-15, 3.37 µM. The GI50 in the test on MOLT-4 was 6.34 µM (inactive); in the test with NCI/ADR-RES it was 3.13 µM (inactive); in the test on M14, 4.69 µM (inactive); in the test with MDA-N, 2.98 µM (inactive); with CCRF-CEM, 21.2 µM (inactive); with SK-MEL-2, 17.8 µM (inactive). In addition, the GI50 was 5.05 µM (inactive) in the test with COLO 205; 3.57 µM (inactive) in the test with SW-620; 27.8 µM (inactive) in the test with MDA-MB-231; 4.26 µM (inactive) in the test with KM12; 8.17 µM (inactive) with IGROV-1; 4.66 µM (inactive) with HT-29. In addition, the GI50 in the test on HL-60 is 4.26 µM (inactive); with CAKI-1 it was 11.4 µM (inactive).
